Experimental data: PubChem BioAssay AID1963970 (Molecular Pharmacology Branch, DTP, NCI, 2024)

Test system: 931267-113-T-J1-PDC multicell spheroid viability
Test: Anticancer human tumor 931267-113-T-J1-PDC patient-derived colon adenocarcinoma cell line growth inhibition [PI3K]
Details: for IC50: curve of first compound; for viability, T/C: stronger effect = lower value
How it was run: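 Spheroid viability read-out. Co-cultures contained the tumor line plus HUVEC and human MSCs. Each agent was paired with a PI3K inhibitor (inavolisib, alpelisib, duvelisib, copanlisib) across half-log dilutions starting at clinical Cmax, or at 10 microM when Cmax was unknown.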

[1] = second compound 0.00316 µM, first compound 0.0316 µM
[2] = second compound 0.00316 µM, first compound 0.1 µM
[3] = second compound 0.00316 µM, first compound 0.316 µM
[4] = second compound 0.00316 µM, first compound 1 µM
[5] = second compound 0.00316 µM, first compound 3.16 µM
[6] = second compound 0.00316 µM, first compound 10 µM
[7] = second compound 0.01 µM, first compound 0.0316 µM
[8] = second compound 0.01 µM, first compound 0.1 µM
[9] = second compound 0.01 µM, first compound 0.316 µM
[10] = second compound 0.01 µM, first compound 1 µM
[11] = second compound 0.01 µM, first compound 3.16 µM
[12] = second compound 0.01 µM, first compound 10 µM
[13] = second compound 0.0316 µM, first compound 0.0316 µM
[14] = second compound 0.0316 µM, first compound 0.1 µM
[15] = second compound 0.0316 µM, first compound 0.316 µM
[16] = second compound 0.0316 µM, first compound 1 µM
[17] = second compound 0.0316 µM, first compound 3.16 µM
[18] = second compound 0.0316 µM, first compound 10 µM
[19] = second compound 0.1 µM, first compound 0.0316 µM
[20] = second compound 0.1 µM, first compound 0.1 µM
[21] = second compound 0.1 µM, first compound 0.316 µM
[22] = second compound 0.1 µM, first compound 1 µM
[23] = second compound 0.1 µM, first compound 3.16 µM
[24] = second compound 0.1 µM, first compound 10 µM
[25] = second compound 0.316 µM, first compound 0.0316 µM
[26] = second compound 0.316 µM, first compound 0.1 µM
[27] = second compound 0.316 µM, first compound 0.316 µM
[28] = second compound 0.316 µM, first compound 1 µM
[29] = second compound 0.316 µM, first compound 3.16 µM
[30] = second compound 0.316 µM, first compound 10 µM
[31] = second compound 1 µM, first compound 0.0316 µM
[32] = second compound 1 µM, first compound 0.1 µM
[33] = second compound 1 µM, first compound 0.316 µM
[34] = second compound 1 µM, first compound 1 µM
[35] = second compound 1 µM, first compound 3.16 µM
[36] = second compound 1 µM, first compound 10 µM
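Note: viability read 7 days after compound addition.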

CC(C)NCC(C(=O)N1CCN(c2ncnc3c2C(C)CC3O)CC1)c1ccc(Cl)cc1 (stereo unspecified) + CC(Nc1ccc2c(c1)OCCn1cc(N3C(=O)OCC3C(F)F)nc1-2)C(N)=O
IC50 (second compound 0.00316 µM): > 10 µM
IC50 (second compound 0.01 µM): > 10 µM
IC50 (second compound 0.0316 µM): > 10 µM
IC50 (second compound 0.1 µM): > 10 µM
IC50 (second compound 0.316 µM): > 10 µM
IC50 (second compound 1 µM): > 10 µM
viability, T/C [1]: 91%
viability, T/C [2]: 90.8%
viability, T/C [3]: 92.9%
viability, T/C [4]: 95.5%
viability, T/C [5]: 86.8%
viability, T/C [6]: 67.3%
viability, T/C [7]: 102%
viability, T/C [8]: 94.3%
viability, T/C [9]: 97.2%
viability, T/C [10]: 95.2%
viability, T/C [11]: 83.5%
viability, T/C [12]: 69.8%
viability, T/C [13]: 103%
viability, T/C [14]: 105%
viability, T/C [15]: 99.2%
viability, T/C [16]: 94.8%
viability, T/C [17]: 96.4%
viability, T/C [18]: 69.9%
viability, T/C [19]: 101%
viability, T/C [20]: 95.7%
viability, T/C [21]: 97.9%
viability, T/C [22]: 96.2%
viability, T/C [23]: 84.2%
viability, T/C [24]: 64.7%
viability, T/C [25]: 85.3%
viability, T/C [26]: 84.5%
viability, T/C [27]: 83.7%
viability, T/C [28]: 85.4%
viability, T/C [29]: 80.5%
viability, T/C [30]: 66.7%
viability, T/C [31]: 73%
viability, T/C [32]: 75.4%
viability, T/C [33]: 72.1%
viability, T/C [34]: 76%
viability, T/C [35]: 82.9%
viability, T/C [36]: 59.9%

C[C@@H](NC(=O)c1ncnc(N)c1Cl)c1ncc(C(=O)Nc2cc(C(F)(F)F)c(Cl)cn2)s1 + CC(Nc1ccc2c(c1)OCCn1cc(N3C(=O)OCC3C(F)F)nc1-2)C(N)=O
IC50 (second compound 0.00316 µM): > 10 µM
IC50 (second compound 0.01 µM): > 10 µM
IC50 (second compound 0.0316 µM): > 10 µM
IC50 (second compound 0.1 µM): 8.97 µM
IC50 (second compound 0.316 µM): 7.88 µM
IC50 (second compound 1 µM): 4.87 µM
viability, T/C [1]: 114%
viability, T/C [2]: 129%
viability, T/C [3]: 110%
viability, T/C [4]: 121%
viability, T/C [5]: 90.8%
viability, T/C [6]: 75.3%
viability, T/C [7]: 116%
viability, T/C [8]: 108%
viability, T/C [9]: 111%
viability, T/C [10]: 118%
viability, T/C [11]: 101%
viability, T/C [12]: 66.7%
viability, T/C [13]: 99.7%
viability, T/C [14]: 124%
viability, T/C [15]: 119%
viability, T/C [16]: 110%
viability, T/C [17]: 97.9%
viability, T/C [18]: 63.6%
viability, T/C [19]: 116%
viability, T/C [20]: 93.3%
viability, T/C [21]: 101%
viability, T/C [22]: 95.9%
viability, T/C [23]: 78%
viability, T/C [24]: 46.4%
viability, T/C [25]: 94%
viability, T/C [26]: 97.5%
viability, T/C [27]: 96.4%
viability, T/C [28]: 87%
viability, T/C [29]: 75.2%
viability, T/C [30]: 43.5%
viability, T/C [31]: 83%
viability, T/C [32]: 88.8%
viability, T/C [33]: 80.7%
viability, T/C [34]: 77.2%
viability, T/C [35]: 62.3%
viability, T/C [36]: 29.7%

Cn1ncnc1[C@H]1c2n[nH]c(=O)c3cc(F)cc(c23)N[C@@H]1c1ccc(F)cc1 + CC(Nc1ccc2c(c1)OCCn1cc(N3C(=O)OCC3C(F)F)nc1-2)C(N)=O
IC50 (second compound 0.00316 µM): > 0.1 µM
IC50 (second compound 0.01 µM): > 0.1 µM
IC50 (second compound 0.0316 µM): > 0.1 µM
IC50 (second compound 0.1 µM): > 0.1 µM
IC50 (second compound 0.316 µM): > 0.1 µM
IC50 (second compound 1 µM): > 0.1 µM
viability, T/C (second compound 0.00316 µM, first compound 0.000316 µM): 98.5%
viability, T/C (second compound 0.00316 µM, first compound 0.001 µM): 113%
viability, T/C (second compound 0.00316 µM, first compound 0.00316 µM): 104%
viability, T/C (second compound 0.00316 µM, first compound 0.01 µM): 111%
viability, T/C [1]: 103%
viability, T/C [2]: 102%
viability, T/C (second compound 0.01 µM, first compound 0.000316 µM): 114%
viability, T/C (second compound 0.01 µM, first compound 0.001 µM): 108%
viability, T/C (second compound 0.01 µM, first compound 0.00316 µM): 91.5%
viability, T/C (second compound 0.01 µM, first compound 0.01 µM): 114%
viability, T/C [7]: 104%
viability, T/C [8]: 108%
viability, T/C (second compound 0.0316 µM, first compound 0.000316 µM): 109%
viability, T/C (second compound 0.0316 µM, first compound 0.001 µM): 96.9%
viability, T/C (second compound 0.0316 µM, first compound 0.00316 µM): 105%
viability, T/C (second compound 0.0316 µM, first compound 0.01 µM): 103%
viability, T/C [13]: 108%
viability, T/C [14]: 102%
viability, T/C (second compound 0.1 µM, first compound 0.000316 µM): 101%
viability, T/C (second compound 0.1 µM, first compound 0.001 µM): 87.5%
viability, T/C (second compound 0.1 µM, first compound 0.00316 µM): 86.1%
viability, T/C (second compound 0.1 µM, first compound 0.01 µM): 89.1%
viability, T/C [19]: 95.2%
viability, T/C [20]: 87%
viability, T/C (second compound 0.316 µM, first compound 0.000316 µM): 95.6%
viability, T/C (second compound 0.316 µM, first compound 0.001 µM): 89.6%
viability, T/C (second compound 0.316 µM, first compound 0.00316 µM): 81.2%
viability, T/C (second compound 0.316 µM, first compound 0.01 µM): 80.4%
viability, T/C [25]: 85.1%
viability, T/C [26]: 94.1%
viability, T/C (second compound 1 µM, first compound 0.000316 µM): 78.2%
viability, T/C (second compound 1 µM, first compound 0.001 µM): 82%
viability, T/C (second compound 1 µM, first compound 0.00316 µM): 80.7%
viability, T/C (second compound 1 µM, first compound 0.01 µM): 76.9%
viability, T/C [31]: 84.6%
viability, T/C [32]: 73.6%
